Data reported in US12110276B2 (Genentech, Inc., priority 2021, dated 2024).

Tests used:
[1] = target: TEAD1 (Homo sapiens (Human), UniProt P28347); assay: TR-FRET lipid pocket probe competition assay (Lipid HTRF), TEAD1; type: binding; conditions: 4 hours pre-incubation; read-out: Lipid HTRF TEAD1 IC50;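 note: His-tagged TEAD1 with biotinylated probe, detected via Europium anti-His and XL665 streptavidin, probe displacement lowers TR-FRET signal, IC50 from four-parameter nonlinear fit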
[2] = target: TEAD4 (Homo sapiens (Human), UniProt Q15561); assay: TR-FRET lipid pocket probe competition assay (Lipid HTRF), TEAD4; type: binding; conditions: 4 hours pre-incubation; read-out: Lipid HTRF TEAD4 IC50;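 note: His-tagged TEAD4 with biotinylated lipid-pocket probe, read by Europium anti-His and XL665 streptavidin, where probe displacement lowers the TR-FRET signal, IC50 from a four-parameter fit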
[3] = target: TEAD2 (Homo sapiens (Human), UniProt Q15562);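 note: TR-FRET competition assay with His-tagged TEAD protein and a biotinylated lipid pocket probe, compound pre-incubated 30 min or 4 h at room temperature, displacement lowers signal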
[4] = target: TEAD3 (Homo sapiens (Human), UniProt Q99594); assay: TR-FRET lipid pocket probe competition assay (Lipid HTRF), TEAD3; type: binding; conditions: 4 hours pre-incubation; read-out: Lipid HTRF TEAD3 IC50
Sequence of TEAD3 (Q99594 whole entry, species assumed): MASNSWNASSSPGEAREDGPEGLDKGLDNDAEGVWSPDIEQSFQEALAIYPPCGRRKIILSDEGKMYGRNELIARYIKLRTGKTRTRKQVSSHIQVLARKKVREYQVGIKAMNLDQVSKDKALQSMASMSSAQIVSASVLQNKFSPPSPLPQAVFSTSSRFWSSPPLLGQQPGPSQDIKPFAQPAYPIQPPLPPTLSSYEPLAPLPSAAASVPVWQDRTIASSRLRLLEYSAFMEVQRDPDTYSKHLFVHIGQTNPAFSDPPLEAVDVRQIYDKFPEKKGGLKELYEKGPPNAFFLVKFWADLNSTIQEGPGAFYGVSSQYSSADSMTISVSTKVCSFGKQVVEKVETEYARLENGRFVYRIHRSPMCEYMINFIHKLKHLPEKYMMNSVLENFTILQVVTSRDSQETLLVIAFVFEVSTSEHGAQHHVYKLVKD

Sequence of TEAD1 (P28347 whole entry, species assumed): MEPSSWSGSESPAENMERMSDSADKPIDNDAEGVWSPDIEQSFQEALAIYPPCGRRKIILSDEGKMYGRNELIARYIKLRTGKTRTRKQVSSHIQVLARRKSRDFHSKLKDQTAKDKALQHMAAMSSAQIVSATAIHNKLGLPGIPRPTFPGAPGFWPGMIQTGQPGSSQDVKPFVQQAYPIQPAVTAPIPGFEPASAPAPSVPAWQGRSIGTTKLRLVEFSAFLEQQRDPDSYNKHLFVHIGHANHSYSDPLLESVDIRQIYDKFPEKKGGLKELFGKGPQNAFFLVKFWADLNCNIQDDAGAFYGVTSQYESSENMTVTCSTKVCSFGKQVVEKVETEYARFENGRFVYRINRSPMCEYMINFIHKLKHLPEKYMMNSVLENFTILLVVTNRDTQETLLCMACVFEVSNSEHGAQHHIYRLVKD
Sequence of TEAD2 (Q15562 whole entry, species assumed): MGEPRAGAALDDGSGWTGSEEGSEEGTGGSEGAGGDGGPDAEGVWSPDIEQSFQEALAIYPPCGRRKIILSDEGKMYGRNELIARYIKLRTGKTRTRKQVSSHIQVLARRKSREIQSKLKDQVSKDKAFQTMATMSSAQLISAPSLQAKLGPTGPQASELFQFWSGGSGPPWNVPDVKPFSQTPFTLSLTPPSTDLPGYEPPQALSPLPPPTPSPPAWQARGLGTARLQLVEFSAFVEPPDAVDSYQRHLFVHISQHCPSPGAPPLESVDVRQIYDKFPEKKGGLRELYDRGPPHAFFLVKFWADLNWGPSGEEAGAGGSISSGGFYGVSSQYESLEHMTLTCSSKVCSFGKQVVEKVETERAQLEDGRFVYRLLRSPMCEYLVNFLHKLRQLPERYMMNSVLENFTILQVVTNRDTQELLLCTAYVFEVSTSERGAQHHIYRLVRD
Sequence of TEAD4 (Q15561 whole entry, species assumed): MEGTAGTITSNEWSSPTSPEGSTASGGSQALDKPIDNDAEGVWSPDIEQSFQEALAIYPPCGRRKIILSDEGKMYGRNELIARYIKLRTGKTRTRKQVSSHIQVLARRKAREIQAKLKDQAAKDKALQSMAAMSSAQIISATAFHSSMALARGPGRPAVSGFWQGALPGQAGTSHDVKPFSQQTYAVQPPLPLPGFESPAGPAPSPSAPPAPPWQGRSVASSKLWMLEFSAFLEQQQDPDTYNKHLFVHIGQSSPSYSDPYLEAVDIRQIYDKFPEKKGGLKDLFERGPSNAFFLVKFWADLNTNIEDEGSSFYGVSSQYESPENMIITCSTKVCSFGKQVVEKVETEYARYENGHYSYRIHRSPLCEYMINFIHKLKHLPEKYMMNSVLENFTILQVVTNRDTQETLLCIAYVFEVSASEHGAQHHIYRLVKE

Compound | IC50 [1] [µM] | IC50 [2] [µM] | IC50 [3] [µM] | IC50 [4] [µM]
O=C(/C=C/Cl)N1CC(c2nn(-c3ccc(OC(F)(F)F)cc3)c3nccc(CO)c23)C1 [Compound 102, (E)-3-Chloro-1-(3-(4-(hydroxymethyl)-1-(4-(trifluoromethoxy)phenyl)-1H-pyrazolo[3,4-b]pyridin-3-yl)azetidin-1-yl)prop-2-en-1-one] | 0.01 | 0.0033 | 0.0035 | 0.0088
C=CC(=O)NCc1nn(-c2ccc(OC(F)(F)F)cc2)c2nccc(N[C@H]3C[C@@H](O)C3)c12 [Compound 143, N-((4-((3-hydroxycyclobutyl)amino)-1-(4-(trifluoromethoxy)phenyl)-1H-pyrazolo[3,4-b]pyridin-3-yl)methyl)acrylamide] | 0.016 | 0.065 | 0.065 | 50
C=CC(=O)NCc1nn(-c2ccc(OC(F)(F)F)cc2)c2nccc(N3CCC[C@H](O)C3)c12 (stereo in doubt) [Compound 33, N-((4-(3-hydroxypiperidin-1-yl)-1-(4-(trifluoromethoxy)phenyl)-1H-pyrazolo[3,4-b]pyridin-3-yl)methyl)acrylamide] | 0.025 | 0.011 | 0.11 | 17
C=C(F)C(=O)N1CC(c2nn(-c3ccc(OC(F)(F)F)cc3)c3nccc(N4CC(CO)(CO)C4)c23)C1 [Compound 142, 1-(3-(4-(3,3-Bis(hydroxymethyl)azetidin-1-yl)-1-(4-(trifluoromethoxy)phenyl)-1H-pyrazolo[3,4-b]pyridin-3-yl)azetidin-1-yl)-2-fluoroprop-2-en-1-one] | 0.15 | 0.009 | 0.33 | 50
C=CC(=O)NCc1nn(-c2ccc(OC(F)(F)F)cc2)c2nccc(-c3cnn(C4CC4)c3)c12 [Compound 173, N-((4-(1-cyclopropyl-1H-pyrazol-4-yl)-1-(4-(trifluoromethoxy)phenyl)-1H-pyrazolo[3,4-b]pyridin-3-yl)methyl)acrylamide] | 0.086 | 0.0525 | 0.383 | 26.2
C=CC(=O)NCc1nn(-c2ccc(OC(F)(F)F)cc2)c2nccc(CN3CC(O)C3)c12 [Compound 54, N-((4-((3-Hydroxyazetidin-1-yl)methyl)-1-(4-(trifluoromethoxy)phenyl)-1H-pyrazolo[3,4-b]pyridin-3-yl)methyl)acrylamide] | 0.49 | 0.86 | 0.73 | 10
C=C(F)C(=O)N1CC(c2nn(-c3ccc(OC(F)(F)F)cc3)c3nccc(-c4cnn(CCO)c4)c23)C1 [Compound 28, 2-Fluoro-1-(3-(4-(1-(2-hydroxyethyl)-1H-pyrazol-4-yl)-1-(4-(trifluoromethoxy)phenyl)-1H-pyrazolo[3,4-b]pyridin-3-yl)azetidin-1-yl)prop-2-en-1-one] | 0.023 | 0.033 | 0.22 | 5.7
O=C(C#CCO)NCc1nn(-c2ccc(OC(F)(F)F)cc2)c2nccc(CO)c12 [Compound 128, 4-Hydroxy-N-((4-(hydroxymethyl)-1-(4-(trifluoromethoxy)phenyl)-1H-pyrazolo[3,4-b]pyridin-3-yl)methyl)but-2-ynamide] | 0.0065 | 0.0036 | 0.012 | 0.072
C=CC(=O)NCc1nn(-c2ccc(OC(F)(F)F)cc2)c2nccc(N3CC[C@H](O)C3)c12 [Compound 46, (S)-N-((4-(3-hydroxypyrrolidin-1-yl)-1-(4-(trifluoromethoxy)phenyl)-1H-pyrazolo[3,4-b]pyridin-3-yl)methyl)acrylamide] | 0.05 | 0.013 | 0.15 | 2.1
C=CC(=O)NCc1nn(-c2ccc(OC(F)(F)F)cc2)c2nccc(N3CC(O)(CO)C3)c12 [Compound 124, N-((4-(3-hydroxy-3-(hydroxymethyl)azetidin-1-yl)-1-(4-(trifluoromethoxy)phenyl)-1H-pyrazolo[3,4-b]pyridin-3-yl)methyl)acrylamide] | 0.041 | 0.0099 | 0.2 | 0.93
